According to US6346626B1, “Chromanone and thiochromanone compounds” (Novartis AG, priority 1998, dated 2002):

Columns and labels:
[1] = molecular target: T1, steroid sulfatase in HaCaT keratinocytes (Homo sapiens, UniProt P08842); assay: Steroid sulfatase inhibition in HaCaT cells incubated with DHEAS; type: cell-based; settings: intact HaCaT keratinocytes, 0.3 μM DHEAS, 96 hours
T1 construct: HaCaT keratinocytes are cultivated in Dulbecco's modification of Eagle's medium (DMEM); endogenous in cells; host or cells: HaCaT keratinocytes
T1 sequence (P08842 22-583): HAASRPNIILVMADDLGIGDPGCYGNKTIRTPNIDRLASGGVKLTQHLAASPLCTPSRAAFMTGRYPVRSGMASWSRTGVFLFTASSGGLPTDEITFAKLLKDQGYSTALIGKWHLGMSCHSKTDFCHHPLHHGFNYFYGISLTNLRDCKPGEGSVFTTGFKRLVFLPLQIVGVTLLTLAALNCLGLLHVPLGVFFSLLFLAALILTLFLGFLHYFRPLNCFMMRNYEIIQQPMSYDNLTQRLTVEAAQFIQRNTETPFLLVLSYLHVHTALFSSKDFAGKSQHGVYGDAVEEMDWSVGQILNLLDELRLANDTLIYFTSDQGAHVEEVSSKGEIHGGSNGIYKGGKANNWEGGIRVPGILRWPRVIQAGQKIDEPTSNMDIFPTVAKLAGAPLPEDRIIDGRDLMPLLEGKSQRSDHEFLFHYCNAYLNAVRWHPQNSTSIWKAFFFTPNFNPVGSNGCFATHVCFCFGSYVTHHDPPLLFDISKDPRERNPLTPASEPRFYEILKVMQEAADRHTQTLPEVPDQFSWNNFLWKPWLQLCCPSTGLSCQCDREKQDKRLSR
Procedure: Steroid Sulfatase Inhibition in HaCaT Cells Incubated with DHEAS
HaCaT keratinocytes are cultivated in Dulbecco's modification of Eagle's medium (DMEM) supplemented with 10% v/v fetal calf serum (FCS). They are grown to confluency and then harvested by trypsinization. Approximately 2×10^6 cells are dispensed into 9.6 cm^2 dishes and incubated in medium containing FCS until confluency is reached. Then the medium is changed to serum-free DMEM (1.5 ml per well); 0.3 μM DHEAS is included as substrate with 1.5 μCi/well [^3H]-DHEAS (21 Ci/mmol) as tracer. Incubation is continued for 96 hours. […] In parallel, DHEAS is also incubated with medium without cells as a control for non-enzymatic hydrolysis. After incubation, the supernatant is removed and 1 ml is extracted with 4 ml of toluene. 3 ml of the organic layer are collected and the solvent evaporated in vacuo. The residue is taken up in acetonitrile. 10 μg DHEA is included as carrier. The extract is analysed by high performance liquid chromatography (HPLC) using a RP C-8 column and isocratic elution with 10 mM ammonium sulfate pH 6/acetonitrile (60/40), at a flow rate of 1 ml/min. The amount of DHEA cleaved during incubation is calculated from the area of the corresponding radioactive peak determined by continuous monitoring with a radiodetector equipped with a flow-cell.

steroid sulfatase [2] = molecular target: T2, steroid sulfatase (Homo sapiens, UniProt P08842); assay: Steroid sulfatase inhibition in cell extracts (HaCaT keratinocytes or 1BR3GN fibroblasts, [3H]-DHEAS cleavage); type: biochemical; parameters: the supernatant which contains the solubilized enzyme is removed and stored at 4°; endogenous in cells; host or cells: HaCaT keratinocytes or 1BR3GN fibroblasts (microsomal extract); settings: solubilized enzyme from HaCaT or 1BR3GN cells, 50 μM DHEAS, 30 minutes at 37°; depending on the enzyme concentration used
T2 sequence (P08842 22-583): T1 sequence (P08842 22-583)
Procedure: Steroid Sulfatase Inhibition in Cell Extracts
Human keratinocytes (HaCaT) or human skin-derived fibroblasts (1BR3GN) are grown to confluency using standard cell culture techniques. Cells are harvested by trypsinization, washed once with phosphate-buffered saline (PBS) and suspended in 20 mM Tris-HCl, pH 8.0. The suspension is sonicated and then centrifuged at 12000 g for 30 minutes. The supernatant is subjected to ultracentrifugation at 100000 g for 60 minutes. The resulting microsomal pellet is resuspended in buffer containing 0.1% Triton X-100 v/v and left standing for 30 minutes. After additional centrifugation at 100000 g for 30 minutes the supernatant which contains the solubilized enzyme is removed and stored at 4°.
For assay of the enzymatic activity 10 μl of enzyme solution are added to 100 μl of 50 μM dehydroepiandrosterone sulfate (DHEAS) containing approximately 60000 dpm [^3H]-DHEAS (21 Ci/mmol) in 0.1 M Tris-HCl, pH 7.5; 0.1% v/v Triton X-100. Test compound is included at various concentrations added from stock solutions in DMSO. After incubation for 30 minutes at 37°, 250 μl of 1N NaOH are added. The mixture is extracted with 1 ml of toluene. 800 μl of the organic layer are subjected to liquid scintillation counting to determine the fraction of substrate that has been cleaved to dehydroepiandrosterone (DHEA).

steroid sulfatase [3] = molecular target: T2, steroid sulfatase; assay: Steroid sulfatase inhibition in vitro (purified enzyme, 4-methylumbelliferyl sulfate cleavage, fluorescence); settings: purified human placental steroid sulfatase, 0.5 mM 4-methylumbelliferyl sulfate, 37°, 1 hour; reference determined in parallel
Procedure: Steroid Sulfatase Inhibition in vitro
a) Purification of Human Steroid Sulfatase
Human placenta is obtained fresh after delivery and stripped of membranes and connective tissues. For storage the material is frozen at −70°. After thawing, all further steps are carried out at 4°, while pH values are adjusted at 20°. 400 g of tissue are homogenized in 1.2 l of buffer A (50 mM Tris-HCl, pH 7.4; 0.25M sucrose). The homogenate is centrifuged at 10,000 g for 45 minutes. The supernatant is set aside and the pellet re-homogenized in 500 ml of buffer A. After centrifugation the two supernatants are combined and subjected to ultracentrifugation (100,000 g, 1 hour). The pellet is resuspended in buffer A and the centrifugation repeated. The pellet is suspended in 50 ml of 50 mM Tris-HCl, pH 7.4 and stored at −20° until further work-up.
After thawing, microsomes are collected by ultracentrifugation as described above and suspended in 50 ml of buffer B (10 mM Tris-HCl, pH 7.0; 1 mM EDTA; 2 mM 2-mercaptoethanol; 1% Triton X-100 v/v; 0.1% aprotinin v/v). After 1 hour on ice with gentle agitation the suspension is centrifuged (100,000 g, 1 hour). […]
Purified human steroid sulfatase also readily cleaves aryl sulfates such as 4-methylumbelliferyl sulfate. […]
Plates are incubated at 37° for 1 hour. […] Fluorescence intensity is measured (Titertek Fluoroskan II) with λex=355 nm and λem=460 nm. […]

| Compound | IC50 [1] | IC50 (steroid sulfatase [2]) | IC50 (steroid sulfatase [3]) | melting point |
| --- | --- | --- | --- | --- |
| C[C@]12CC[C@@H]3c4ccc(OS(N)(=O)=O)cc4CC[C@H]3[C@@H]1CCC2=O [Estrone-3-O-sulfamate] | ~0.1 nM | 1 to 5 nM | ~60 nM |  |
| CN(C)S(=O)(=O)Oc1ccc2oc(C(C)(C)C)cc(=O)c2c1 [Example 9, N,N-Dimethylsulfamic acid 2-t-butyl-4H-chromen-4-on-6-yl ester] |  |  |  | 83 to 85 °C |
